Experimental data taken from paper PMC7759686, “Pharmacokinetics and Immunological Effects of Romidepsin in Rhesus Macaques” (Frontiers in Immunology, 2020).

Columns and labels:
[1] = Serum chemistries (hepato-, nephro- and general toxicity markers); type: in vivo, rhesus macaques (Macaca mulatta); conditions: 3 RMs, 7 mg/m^2
Description: Complete blood counts (CBCs) and serum chemistries were monitored in the collected samples from both the RMD-treated RMs and control RMs by either the Marshfield Laboratories (Cleveland, OH), IDEXX Reference Laboratories (IDEXX Laboratories, Inc, Westbrook, ME) or in house, using a ProCyte Hematology Analyzer (IDEXX Laboratories, Inc).

[2] = tested on: peripheral CD4+ and CD8+ T cells; assay: Apoptosis and activation of peripheral T cells (whole blood flow cytometry); type: in vivo, rhesus macaques (Macaca mulatta); conditions: n = 3
Experimental: Whole blood was stained to monitor the impact of RMD on the immune cell populations. TruCount was used to determine absolute counts of CD3^+, CD4^+, CD8^+ T cells and CD20^+ B cells as described ([51]–[53]). Fifty microliters of whole blood were stained with antibodies against CD3-V450, CD4-APC, CD20-APC-H7, and CD45-PerCP in TruCount tubes (BD Biosciences, Franklin Lakes, NJ, USA) with a set number of fluorescent beads as internal standards. CD8^+ T cell counts were assessed through the ratio of CD8^+ to CD3^+ T cells. Whole blood was also stained with combinations of the following fluorescently labeled antibodies: CD3-V450 (SP34-2), CD4-APC (L200), CD8-PE-CF594 (RPA-T8), CD14-PE-Cy7 (M5E2), CD38-FITC (AT-1) (Stemcell, Vancouver, BC, CA), CD20-APC-H7 (2H7), CD69-APC-Cy7 (FN50), CD95-FITC (DX2), CCR5-PE (3A9), Annexin V-FITC, HLA-DR-PE-Cy7 (L243), NKG2A-PE (Z199) (Beckman Coulter, Pasadena, CA), Strepavidin-Alexa Fluor 750 (Life Technologies, Carlsbad, CA), Biotin-CCR7 (eBioscience, San Diego, CA), LIVE/DEAD Fixable Blue Dead Cell Stain Kit (Thermo Fisher Scientific); all antibodies were from BD Biosciences unless otherwise noted. For Ki-67-PE (B56) intracellular staining, cells were fixed and permeabilized prior to Ki-67 staining. Data were acquired with a LSR-II flow cytometer (BD Biosciences) or Fortessa flow cytometer (BD Biosciences) and analyzed with FlowJo software 10.7.0 (Treestar, Ashland, OR), as described ([51], [54]).

PBMCs = assay: In vitro RMD impact on cell surface markers of PBMCs; type: cell-based, rhesus macaques; conditions: for CD3 expression (% of cells) on PBMCs: n = 3
Experimental: To assess the RMD impact on the expression of cellular and homing markers, fresh PBMCs collected from 3 SIV-naïve RMs were subjected to either no RMD treatment or escalating doses of RMD (2, 10, and 20 ng/ml). The PBMCs were incubated with RMD in RPMI1640 supplemented with 1% Penicillin/Streptomycin, 1% HEPES buffer, 1% L-glutamine, and 5% heat-inactivated bovine calf serum for 0, 1, 2, or 5 days. PBMCs were then stained with CD3-V500, CD4-Alexa Flour 700 (L200), CD8-PE-CF594, CCR4-PE-Cy7 (1G1), CCR5-APC (3AP), CCR7-PE (3D12), CCR9-FITC (112509) (R&D Systems, Minneapolis, MN, USA), β7-PE-Cy5 (FIB504), and LIVE/DEAD Fixable Blue Dead Cell Stain Kit (Thermo Fisher Scientific); all antibodies were from BD Biosciences unless otherwise noted. Stained PBMCs were acquired on a LSR-II and data were analyzed with FlowJo software (TreeStar).

CD8+ T cells = assay: T lymphocyte functional assay (PMA/ionomycin stimulation, flow cytometry); type: in vivo, rhesus macaques (Macaca mulatta)
Experimental: To simplify the complication of RMD treatment and SIV infection, it was vital to assess the impact of RMD administration on the T-cell function, particularly on the cellular immune responses on uninfected RMs. Due to the incapability to assess the SIV-specific immune responses, the overall cytotoxic capacity of lymphocytes in the blood was assessed as follows. Frozen PBMCs were thawed, counted, and were either unstimulated or stimulated with PMA and ionomycin (Sigma, St. Louis, MO). PBMCs were stained with the following antibodies: CD3-V500 (SP34-2), CD4-APC (L200), CD8-PE-CF594 (RPA-T8), CD107a-APC-Cy7 (H4A3), Granzyme A-PerCP/Cy5.5 (CB9) (BioLegend), Granzyme B-Alexa Flour 700 (GB11), Granzyme K-FITC (GM6C3) (Santa Cruz Biotechnology, Dallas, TX), IFN-γ-FITC (4S.B3), and Perforin-PE (B-D48) (BioLegend); antibodies were from BD Biosciences unless otherwise noted. Stained PBMCs were then acquired on an LSR-II flow cytometer. Data were analyzed using FlowJo software (Treestar).
Previous studies reported conflicting data as to whether the functionality of CTLs is diminished by RMD administration ([41], [64]). Therefore, we performed functional assays on lymphocytes collected from superficial and mesenteric LNs and intestinal resections, focusing on the overall expression of the surrogate killing marker CD107a, along with granzymes A, B, and K, IFN-γ, and perforin with PMA and ionomycin stimulation ( Figure 11 ).

[3] = 3 days postinfusion, baseline 22
[4] = 4 days postinfusion, baseline 22
[5] = intestine, 2 days postinfusion, pretreatment 2%
[6] = mesenteric LN, 1 day postinfusion, pretreatment 2%
[7] = superficial LN, 2 days postinfusion, pretreatment 1%
[8] = superficial LN, 2 days postinfusion, pretreatment 4%

SMILES: C/C=C1\NC(=O)[C@H]2CSSCC/C=C/[C@H](CC(=O)N[C@H](C(C)C)C(=O)N2)OC(=O)[C@H](C(C)C)NC1=O [RMD, romidepsin]
- alanine aminotransferase (ALT) ([1]; 18 h postinfusion, baseline 22, normal range 14-94, not significant): 98 U/L
- aspartate aminotransferase (AST) ([1]; 18 h postinfusion, baseline 39, normal range 31-108, p < 0.05): 186 U/L
- creatinine ([1]; 3 days postinfusion, baseline 0.60): 0.63 mg/dL
- alanine aminotransferase (ALT) [1, 3]: 89 U/L
- urea nitrogen [1, 3]: 29 mg/dL
- aspartate aminotransferase (AST) ([1]; 3 days postinfusion, baseline 39): 101 U/L
- lactate dehydrogenase (LDH) ([1]; 3 days postinfusion, baseline 702, normal 514 ± 187): 1,562 U/L
- alanine aminotransferase (ALT) [1, 4]: 80 U/L
- urea nitrogen [1, 4]: 25 mg/dL
- aspartate aminotransferase (AST) ([1]; 4 days postinfusion, baseline 39): 91 U/L
- creatinine kinase (CK) ([1]; 4 days postinfusion, baseline 367): 1,740 U/L
- lactate dehydrogenase (LDH) ([1]; 4 days postinfusion, baseline 702): 1,323 U/L
- creatinine ([1]; peak, 18 h postinfusion, baseline 0.60, normal range 0.5-1.2): 0.77 mg/dL
- urea nitrogen ([1]; peak, 18 h postinfusion, baseline 22, normal range 8-25): 35 mg/dL
- creatinine kinase (CK) ([1]; peak, 18 h postinfusion, baseline 367, normal range 132-505, p < 0.05): 7,445 U/L
- frequency of apoptotic CD8+ T cells ([2]; 2 days postinfusion, baseline 2.1%, Annexin V and Live/Dead): 4.6%
- frequency of apoptotic CD4+ T cells ([2]; after RMD administration, baseline 3.7%, Annexin V and Live/Dead): 1.8%
- expression of T cell activation markers CD69 and Ki-67 on circulating CD4+ and CD8+ T cells ([2]; by 1 day postinfusion, not significant): increased
- CD3 expression (% of cells) on PBMCs (PBMCs; 2 ng/ml RMD, day 2, baseline 50%, no RMD 66%): 48%
- CD3 expression (% of cells) on PBMCs (PBMCs; 2 ng/ml RMD, day 5, baseline 50%, no RMD 61%): 20%
- CD3 expression (% of cells) on PBMCs (PBMCs; 10 ng/ml RMD, day 2, baseline 50%, no RMD 66%): 30%
- CD3 expression (% of cells) on PBMCs (PBMCs; 10 ng/ml RMD, day 5, baseline 50%, no RMD 61%): 16%
- CD3 expression (% of cells) on PBMCs (PBMCs; 20 ng/ml RMD, day 2, baseline 50%, no RMD 66%): 32%
- CD3 expression (% of cells) on PBMCs (PBMCs; 20 ng/ml RMD, day 5, baseline 50%, no RMD 61%): 19%
- CD3 expression (% of cells) on PBMCs (PBMCs; day 1, all dosage treatments (2, 10, 20 ng/ml)): minimal changes
- proportions of CD4− CD8− CD3+ T cells (PBMCs; with increasing dosages of RMD (2, 10, 20 ng/ml), p < 0.05): increased proportions
- Granzyme K expression in CD8+ T cells (CD8+ T cells; intestine, 2 days postinfusion, pretreatment 1%): < 1%
- CD107a expression in CD8+ T cells (CD8+ T cells; [5]): 1%
- Granzyme A expression in CD8+ T cells (CD8+ T cells; [5]): < 1%
- Perforin expression in CD8+ T cells (CD8+ T cells; intestines, 2 days postinfusion, pretreatment 1%): < 1%
- IFN-γ expression in CD8+ T cells (CD8+ T cells; intestines, 2 days postinfusion, pretreatment 2%): 1%
- Granzyme B expression in CD8+ T cells (CD8+ T cells; intestines, 2 days postinfusion, pretreatment 11%): 3%
- CD107a expression in CD8+ T cells (CD8+ T cells; mesenteric LN, 1 day postinfusion, pretreatment 1%): < 1%
- Granzyme K expression in CD8+ T cells (CD8+ T cells; [6]): < 1%
- Perforin expression in CD8+ T cells (CD8+ T cells; [6]): < 1%
- IFN-γ expression in CD8+ T cells (CD8+ T cells; mesenteric LN, 1 day postinfusion, pretreatment 5%): 3%
- Granzyme B expression in CD8+ T cells (CD8+ T cells; mesenteric LN, 2 days postinfusion, pretreatment 5%): 2%
- Granzyme A expression in CD8+ T cells (CD8+ T cells; mesenteric LNs, 1 day postinfusion, pretreatment 1%): < 1%
- CD107a expression in CD8+ T cells (CD8+ T cells; [7]): < 1%
- Granzyme K expression in CD8+ T cells (CD8+ T cells; [7]): < 1%
- Perforin expression in CD8+ T cells (CD8+ T cells; [7]): < 1%
- Granzyme B expression in CD8+ T cells (CD8+ T cells; [8]): 1%
- IFN-γ expression in CD8+ T cells (CD8+ T cells; [8]): 1%
- Granzyme A expression in CD8+ T cells (CD8+ T cells; superficial LNs, 2 days postinfusion, pretreatment 1%): < 1%
